Values of other authors, collected in patent US20110256218A1, “CONTROLLED RELEASE COMPOSITIONS COMPRISING MECLIZINE OR RELATED PIPERAZINE DERIVATIVES” (EURAND, INC., priority 2010, published 2011).
Where a name gives a salt, the structure may show the parent alone.

Experiments:
[1] = weakly basic chemical entity
[2] = in humans
[3] = patients taking meclizine
[4] = in vivo

SMILES	pKa [1]	plasma half-life [2]	sedation reported (common side effect) [3]	effects lasting (duration of action) [4]	onset of action [4]
Cc1cccc(CN2CCN(C(c3ccccc3)c3ccc(Cl)cc3)CC2)c1 (stereo not drawn) [Meclizine 2HCl.H2O, 1-(p-chloro-α-phenylbenzyl)-4-(m-methylbenzyl)piperazine dihydrochloride monohydrate]	6.2	–	–	–	–
Cc1cccc(CN2CCN(C(c3ccccc3)c3ccc(Cl)cc3)CC2)c1 (centres unmarked) [meclizine]	–	about 6 hours	20%-30%	8 to 24 h	about 1 hour
